Test results taken from ChEMBL document CHEMBL1201862, “PubChem BioAssay data set” (2004).
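Five concentrations, 48 hours, 96-well plates. Here, GI50 denotes the concentration required for 50% inhibition of growth.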 Activity calls are given as the source filed them. Cut-off read from the data, not from the text of the source: active = GI50 up to about 1.1 µM and inactive = higher.

Tests used:
Test in all cases: NCI-60 cell line screen, 48 h
HCT-116 = test system: HCT-116
SNB-75 = test system: SNB-75
K562 = test system: K562
OVCAR-4 = test system: OVCAR-4
SK-MEL-2 = test system: SK-MEL-2
RXF 631 = test system: RXF 631
DMS-273 = test system: DMS-273
HCT-15 = test system: HCT-15
786-0 = test system: 786-0
A498 = test system: A498
CAKI-1 = test system: CAKI-1
KM-20L2 = test system: KM-20L2
SK-MEL-28 = test system: SK-MEL-28
LXFL 529 = test system: LXFL 529
ACHN = test system: ACHN
Malme-3M = test system: Malme-3M
M14 = test system: M14
SF-268 = test system: SF-268
SNB-19 = test system: SNB-19
XF498 = test system: XF498
DMS-114 = test system: DMS-114
SK-OV-3 = test system: SK-OV-3
SW-620 = test system: SW-620
NCI-H226 = test system: NCI-H226
M19-MEL = test system: M19-MEL
UO-31 = test system: UO-31
SN12C = test system: SN12C
KM12 = test system: KM12
NCI-H522 = test system: NCI-H522
SF-539 = test system: SF-539
LOX IMVI = test system: LOX IMVI
IGROV-1 = test system: IGROV-1
SF-295 = test system: SF-295
UACC-62 = test system: UACC-62
RPMI-8226 = test system: RPMI-8226
SR = test system: SR
UACC-257 = test system: UACC-257
HT-29 = test system: HT-29
HOP-62 = test system: HOP-62
NCI-H460 = test system: NCI-H460
HCC 2998 = test system: HCC 2998
OVCAR-5 = test system: OVCAR-5
OVCAR-8 = test system: OVCAR-8
OVCAR-3 = test system: OVCAR-3
A549 = test system: A549
EKVX = test system: EKVX
SK-MEL-5 = test system: SK-MEL-5
MOLT-4 = test system: MOLT-4
U-251 = test system: U-251
DLD-1 = test system: DLD-1
TK-10 = test system: TK-10
COLO 205 = test system: COLO 205
RXF 393 = test system: RXF 393
SNB-78 = test system: SNB-78
NCI-H23 = test system: NCI-H23
CCRF-CEM = test system: CCRF-CEM

CCOC(=O)C1=C(C)N(NC(N)=O)C2(N)N(NC(N)=O)C(C)=C(C(=O)OCC)C12C#N (stereo not given)
GI50 (HCT-116): > 100 µM (inactive) | GI50 (SNB-75): > 100 µM (inactive) | GI50 (K562): > 100 µM (inactive) | GI50 (OVCAR-4): > 100 µM (inactive) | GI50 (SK-MEL-2): > 100 µM (inactive) | GI50 (RXF 631): > 100 µM (inactive) | GI50 (DMS-273): > 100 µM (inactive) | GI50 (HCT-15): > 100 µM | GI50 (786-0): > 100 µM (inactive) | GI50 (A498): > 100 µM (inactive) | GI50 (CAKI-1): > 100 µM (inactive) | GI50 (KM-20L2): > 100 µM (inactive) | GI50 (SK-MEL-28): > 100 µM (inactive) | GI50 (LXFL 529): > 100 µM (inactive) | GI50 (ACHN): > 100 µM (inactive) | GI50 (Malme-3M): > 100 µM (inactive) | GI50 (M14): > 100 µM (inactive) | GI50 (SF-268): > 100 µM (inactive) | GI50 (SNB-19): > 100 µM (inactive) | GI50 (XF498): > 100 µM (inactive) | GI50 (DMS-114): > 100 µM (inactive) | GI50 (SK-OV-3): > 100 µM (inactive) | GI50 (SW-620): > 100 µM (inactive) | GI50 (NCI-H226): > 100 µM (inactive) | GI50 (M19-MEL): > 100 µM (inactive) | GI50 (UO-31): > 100 µM (inactive) | GI50 (SN12C): > 100 µM (inactive) | GI50 (KM12): > 100 µM (inactive) | GI50 (NCI-H522): > 100 µM (inactive) | GI50 (SF-539): > 100 µM (inactive) | GI50 (LOX IMVI): > 100 µM (inactive) | GI50 (IGROV-1): > 100 µM (inactive) | GI50 (SF-295): > 100 µM (inactive) | GI50 (UACC-62): > 100 µM (inactive) | GI50 (RPMI-8226): > 100 µM (inactive) | GI50 (SR): > 100 µM (inactive) | GI50 (UACC-257): > 100 µM (inactive) | GI50 (HT-29): > 100 µM (inactive) | GI50 (HOP-62): > 100 µM (inactive) | GI50 (NCI-H460): > 100 µM (inactive) | GI50 (HCC 2998): > 100 µM (inactive) | GI50 (OVCAR-5): > 100 µM (inactive) | GI50 (OVCAR-8): > 100 µM (inactive) | GI50 (OVCAR-3): > 100 µM (inactive) | GI50 (A549): > 100 µM (inactive) | GI50 (EKVX): > 100 µM (inactive) | GI50 (SK-MEL-5): > 100 µM (inactive) | GI50 (MOLT-4): > 100 µM (inactive) | GI50 (U-251): > 100 µM (inactive) | GI50 (DLD-1): > 100 µM (inactive)

O=C1C2c3[nH]c4ccccc4c3C3CCCCCCC3C2C(=O)N1c1ccccc1 (stereo not given)
GI50 (SNB-75): 2.23 µM (inactive) | GI50 (K562): 4.52 µM (inactive) | GI50 (OVCAR-4): 3.87 µM (inactive) | GI50 (RXF 631): 4.71 µM (inactive) | GI50 (DMS-273): 11.1 µM (inactive) | GI50 (HCT-15): 22.3 µM | GI50 (786-0): 8.67 µM (inactive) | GI50 (A498): 15.5 µM (inactive) | GI50 (SK-MEL-28): 14.6 µM (inactive) | GI50 (LXFL 529): 12.9 µM (inactive) | GI50 (ACHN): 8.24 µM (inactive) | GI50 (Malme-3M): 3.33 µM (inactive) | GI50 (M14): 6.85 µM (inactive) | GI50 (SF-268): 21.6 µM (inactive) | GI50 (TK-10): 12 µM (inactive) | GI50 (XF498): 1.92 µM (inactive) | GI50 (DMS-114): 4.71 µM (inactive) | GI50 (SK-OV-3): 2.44 µM (inactive) | GI50 (SW-620): 8.61 µM (inactive) | GI50 (M19-MEL): 10.9 µM (inactive) | GI50 (SN12C): 6.03 µM (inactive) | GI50 (KM12): 33.6 µM (inactive) | GI50 (SF-539): 12 µM (inactive) | GI50 (LOX IMVI): 5 µM (inactive) | GI50 (IGROV-1): > 10 µM (inactive) | GI50 (SF-295): 2.91 µM (inactive) | GI50 (COLO 205): 7.64 µM (inactive) | GI50 (UACC-62): 32.9 µM (inactive) | GI50 (RPMI-8226): 13.4 µM (inactive) | GI50 (SR): 14.9 µM (inactive) | GI50 (HT-29): 19.9 µM (inactive) | GI50 (NCI-H460): 4.91 µM (inactive) | GI50 (HCC 2998): 12.3 µM (inactive) | GI50 (OVCAR-8): 4.32 µM (inactive) | GI50 (RXF 393): 7.74 µM (inactive) | GI50 (OVCAR-3): 4.35 µM (inactive) | GI50 (SNB-78): 13.2 µM (inactive) | GI50 (A549): 8.65 µM (inactive) | GI50 (EKVX): 24.9 µM (inactive) | GI50 (SK-MEL-5): 33 µM (inactive) | GI50 (MOLT-4): > 10 µM (inactive) | GI50 (NCI-H23): 21 µM (inactive) | GI50 (U-251): 4.46 µM (inactive) | GI50 (CCRF-CEM): 10.2 µM (inactive) | GI50 (DLD-1): > 10 µM (inactive)
